Assay results as given in PubChem BioAssay (NCI).
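Growth conditions: 96-well plates. Treatment: test compound, 48 hours, 5 concentrations. Analysis: linear interpolation between bracketing concentrations; unreached endpoints set to highest concentration. Here, GI50 denotes the concentration required for 50% inhibition of growth. TGI denotes the concentration required for complete inhibition of growth.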

Key:
Assay in all cases: NCI anticancer screen, dose series, 48 h
786-0 renal = test system: 786-0 renal
A549 NSCLC = test system: A549 NSCLC
ACHN renal = test system: ACHN renal
CCRF-CEM leukemia = test system: CCRF-CEM leukemia
COLO 205 colon = test system: COLO 205 colon
DLD-1 colon = test system: DLD-1 colon
DMS 114 small cell lung = test system: DMS 114 small cell lung
DMS 273 small cell lung = test system: DMS 273 small cell lung
HCC-2998 colon = test system: HCC-2998 colon
HCT-116 colon = test system: HCT-116 colon
HCT-15 colon = test system: HCT-15 colon
HL-60(TB) leukemia = test system: HL-60(TB) leukemia
HOP-18 NSCLC = test system: HOP-18 NSCLC
HOP-62 NSCLC = test system: HOP-62 NSCLC
HOP-92 NSCLC = test system: HOP-92 NSCLC
HT29 colon = test system: HT29 colon
IGROV1 ovarian = test system: IGROV1 ovarian
K-562 leukemia = test system: K-562 leukemia
KM12 colon = test system: KM12 colon
KM20L2 colon = test system: KM20L2 colon
LOX IMVI melanoma = test system: LOX IMVI melanoma
LXFL 529 NSCLC = test system: LXFL 529 NSCLC
M14 melanoma = test system: M14 melanoma
M19-MEL melanoma = test system: M19-MEL melanoma
MALME-3M melanoma = test system: MALME-3M melanoma
NCI-H226 lung = test system: NCI-H226 lung
NCI-H460 lung = test system: NCI-H460 lung
NCI-H522 lung = test system: NCI-H522 lung
OVCAR-3 ovarian = test system: OVCAR-3 ovarian
OVCAR-4 ovarian = test system: OVCAR-4 ovarian
OVCAR-5 ovarian = test system: OVCAR-5 ovarian
OVCAR-8 ovarian = test system: OVCAR-8 ovarian
RPMI-8226 leukemia = test system: RPMI-8226 leukemia
RXF 393 renal = test system: RXF 393 renal
SF-268 CNS = test system: SF-268 CNS
SF-539 CNS = test system: SF-539 CNS
SK-MEL-2 melanoma = test system: SK-MEL-2 melanoma
SK-MEL-28 melanoma = test system: SK-MEL-28 melanoma
SK-MEL-5 melanoma = test system: SK-MEL-5 melanoma
SK-OV-3 ovarian = test system: SK-OV-3 ovarian
SN12C renal = test system: SN12C renal
SNB-19 CNS = test system: SNB-19 CNS
SNB-78 CNS = test system: SNB-78 CNS
SR leukemia = test system: SR leukemia
SW-620 colon = test system: SW-620 colon
TK-10 renal = test system: TK-10 renal
U251 CNS = test system: U251 CNS
UACC-62 melanoma = test system: UACC-62 melanoma
UO-31 renal = test system: UO-31 renal
XF 498 CNS = test system: XF 498 CNS
A498 renal = test system: A498 renal
CAKI-1 renal = test system: CAKI-1 renal
EKVX NSCLC = test system: EKVX NSCLC
MOLT-4 leukemia = test system: MOLT-4 leukemia
NCI-H23 lung = test system: NCI-H23 lung
SF-295 CNS = test system: SF-295 CNS
SNB-75 CNS = test system: SNB-75 CNS
UACC-257 melanoma = test system: UACC-257 melanoma

SMILES: COc1cc(C)cc2c1[nH]c1ccccc12
- GI50 (786-0 renal): 9.37 µM
- TGI (786-0 renal): > 25 µM
- TGI (A549 NSCLC): > 25 µM
- GI50 (ACHN renal): 23.4 µM
- TGI (ACHN renal): > 25 µM
- GI50 (CCRF-CEM leukemia): 15.4 µM
- TGI (CCRF-CEM leukemia): > 25 µM
- GI50 (COLO 205 colon): 12.4 µM
- TGI (COLO 205 colon): > 25 µM
- GI50 (DLD-1 colon): 10.5 µM
- TGI (DLD-1 colon): > 25 µM
- TGI (DMS 114 small cell lung): > 25 µM
- GI50 (DMS 273 small cell lung): 7.73 µM
- TGI (DMS 273 small cell lung): > 25 µM
- GI50 (HCC-2998 colon): 14.9 µM
- TGI (HCC-2998 colon): > 25 µM
- GI50 (HCT-116 colon): 11.4 µM
- TGI (HCT-116 colon): > 25 µM
- GI50 (HCT-15 colon): 7.45 µM
- TGI (HCT-15 colon): > 25 µM
- GI50 (HL-60(TB) leukemia): 6.88 µM
- TGI (HL-60(TB) leukemia): > 25 µM
- GI50 (HOP-18 NSCLC): 0.29 µM
- TGI (HOP-18 NSCLC): 12.7 µM
- TGI (HOP-62 NSCLC): 18.6 µM
- GI50 (HOP-92 NSCLC): 23.5 µM
- TGI (HOP-92 NSCLC): > 25 µM
- GI50 (HT29 colon): 7.78 µM
- TGI (HT29 colon): > 25 µM
- GI50 (IGROV1 ovarian): 14.8 µM
- TGI (IGROV1 ovarian): > 25 µM
- TGI (K-562 leukemia): > 25 µM
- GI50 (KM12 colon): 8.12 µM
- TGI (KM12 colon): > 25 µM
- GI50 (KM20L2 colon): 7.53 µM
- TGI (KM20L2 colon): 19.6 µM
- GI50 (LOX IMVI melanoma): 12.7 µM
- TGI (LOX IMVI melanoma): > 25 µM
- GI50 (LXFL 529 NSCLC): 18.3 µM
- TGI (LXFL 529 NSCLC): > 25 µM
- GI50 (M14 melanoma): 7.24 µM
- TGI (M14 melanoma): 22.1 µM
- GI50 (M19-MEL melanoma): 18.3 µM
- TGI (M19-MEL melanoma): > 25 µM
- GI50 (MALME-3M melanoma): 8.11 µM
- TGI (MALME-3M melanoma): > 25 µM
- GI50 (NCI-H226 lung): 8.44 µM
- TGI (NCI-H226 lung): > 25 µM
- GI50 (NCI-H460 lung): 7.83 µM
- TGI (NCI-H460 lung): > 25 µM
- GI50 (NCI-H522 lung): 4.24 µM
- TGI (NCI-H522 lung): 13.3 µM
- TGI (OVCAR-3 ovarian): > 25 µM
- TGI (OVCAR-4 ovarian): > 25 µM
- TGI (OVCAR-5 ovarian): > 25 µM
- TGI (OVCAR-8 ovarian): 23.9 µM
- TGI (RPMI-8226 leukemia): > 25 µM
- TGI (RXF 393 renal): 22.5 µM
- GI50 (SF-268 CNS): 14.3 µM
- TGI (SF-268 CNS): > 25 µM
- GI50 (SF-539 CNS): 6.01 µM
- TGI (SF-539 CNS): 14.5 µM
- GI50 (SK-MEL-2 melanoma): 7.33 µM
- TGI (SK-MEL-2 melanoma): > 25 µM
- GI50 (SK-MEL-28 melanoma): 16.3 µM
- TGI (SK-MEL-28 melanoma): > 25 µM
- GI50 (SK-MEL-5 melanoma): 9.19 µM
- TGI (SK-MEL-5 melanoma): > 25 µM
- GI50 (SK-OV-3 ovarian): 20.9 µM
- TGI (SK-OV-3 ovarian): > 25 µM
- GI50 (SN12C renal): 14.1 µM
- TGI (SN12C renal): > 25 µM
- TGI (SNB-19 CNS): > 25 µM
- TGI (SNB-78 CNS): > 25 µM
- GI50 (SR leukemia): 10.3 µM
- TGI (SR leukemia): > 25 µM
- GI50 (SW-620 colon): 8.35 µM
- TGI (SW-620 colon): > 25 µM
- TGI (TK-10 renal): > 25 µM
- GI50 (U251 CNS): 10.4 µM
- TGI (U251 CNS): > 25 µM
- GI50 (UACC-62 melanoma): 15 µM
- TGI (UACC-62 melanoma): > 25 µM
- GI50 (UO-31 renal): 15 µM
- TGI (UO-31 renal): > 25 µM
- GI50 (XF 498 CNS): 22.6 µM
- TGI (XF 498 CNS): > 25 µM

SMILES: CC1(C(=O)Nc2ccc3cc4ccccc4cc3c2)CC2(C)CC(C)(C1)C(O)NC2=O (stereo not drawn)
- TGI (786-0 renal): > 100 µM
- TGI (A498 renal): > 100 µM
- TGI (A549 NSCLC): > 100 µM
- TGI (ACHN renal): > 100 µM
- TGI (CAKI-1 renal): > 100 µM
- TGI (CCRF-CEM leukemia): > 100 µM
- TGI (COLO 205 colon): > 100 µM
- TGI (DLD-1 colon): > 100 µM
- TGI (DMS 114 small cell lung): > 100 µM
- TGI (DMS 273 small cell lung): > 100 µM
- TGI (EKVX NSCLC): > 100 µM
- TGI (HCC-2998 colon): > 100 µM
- TGI (HCT-116 colon): > 100 µM
- TGI (HCT-15 colon): > 100 µM
- TGI (HL-60(TB) leukemia): 85.8 µM
- TGI (HOP-18 NSCLC): > 100 µM
- TGI (HOP-62 NSCLC): > 100 µM
- TGI (HOP-92 NSCLC): > 100 µM
- TGI (HT29 colon): > 100 µM
- TGI (IGROV1 ovarian): > 100 µM
- TGI (K-562 leukemia): > 100 µM
- TGI (KM12 colon): > 100 µM
- TGI (KM20L2 colon): > 100 µM
- TGI (LOX IMVI melanoma): > 100 µM
- TGI (LXFL 529 NSCLC): > 100 µM
- TGI (M14 melanoma): > 100 µM
- TGI (M19-MEL melanoma): > 100 µM
- TGI (MALME-3M melanoma): > 100 µM
- TGI (MOLT-4 leukemia): > 100 µM
- TGI (NCI-H226 lung): > 100 µM
- TGI (NCI-H23 lung): > 100 µM
- TGI (NCI-H460 lung): > 100 µM
- TGI (OVCAR-3 ovarian): > 100 µM
- TGI (OVCAR-4 ovarian): > 100 µM
- TGI (OVCAR-5 ovarian): > 100 µM
- TGI (OVCAR-8 ovarian): > 100 µM
- TGI (RPMI-8226 leukemia): > 100 µM
- TGI (RXF 393 renal): > 100 µM
- TGI (SF-268 CNS): > 100 µM
- TGI (SF-295 CNS): > 100 µM
- TGI (SF-539 CNS): > 100 µM
- TGI (SK-MEL-2 melanoma): > 100 µM
- TGI (SK-MEL-28 melanoma): > 100 µM
- TGI (SK-MEL-5 melanoma): > 100 µM
- TGI (SK-OV-3 ovarian): > 100 µM
- TGI (SN12C renal): > 100 µM
- TGI (SNB-75 CNS): > 100 µM
- TGI (SNB-78 CNS): > 100 µM
- TGI (SR leukemia): > 100 µM
- TGI (SW-620 colon): > 100 µM
- TGI (TK-10 renal): > 100 µM
- TGI (U251 CNS): > 100 µM
- TGI (UACC-257 melanoma): > 100 µM
- TGI (UACC-62 melanoma): > 100 µM
- TGI (UO-31 renal): > 100 µM
- TGI (XF 498 CNS): > 100 µM
